Measurements as given in ChEMBL document CHEMBL1909294, “Translating clinical findings into knowledge in drug safety evaluation--drug induced liver injury prediction system (DILIps)” (PLoS Comput Biol, 2011).

Experiments:
[1] = tested on: Hepatotoxicity;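 for HepSE bilirubinemia: bilirubinemia hepatic side effect score drawn from the DILIps training data, a prediction system for drug-induced liver injury; call rule not given here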;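 for HepSE cholecystitis: Cholecystitis-related hepatic side effect score drawn from the DILIps (drug-induced liver injury prediction) training data set; call rule not given here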;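 for HepSE hepatomegaly: hepatic side effect score for hepatomegaly, taken from the training set of the DILIps drug-induced liver injury prediction system; call rule not given here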;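 for HepSE jaundice: Jaundice-related hepatic side-effect score drawn from the training data of the DILIps (drug-induced liver injury prediction system); call rule not given here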; for HepSE liver disease: call rule not given here;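 for HepSE liver fatty: hepatic side effect score for fatty liver, taken from the DILIps training set for predicting drug-induced liver injury; call rule not given here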;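 for HepSE liver function tests abnormal: hepatic side effect score taken from the DILIps (drug-induced liver injury prediction system) training data, here covering abnormal liver function test findings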
[2] = tested on: Hepatotoxicity; remark: listed apart in the source;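 for HepSE bilirubinemia: bilirubinemia hepatic side effect score drawn from the DILIps training data, a prediction system for drug-induced liver injury; call rule not given here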;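 for HepSE cholecystitis: Cholecystitis-related hepatic side effect score drawn from the DILIps (drug-induced liver injury prediction) training data set; call rule not given here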;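 for HepSE jaundice: Jaundice-related hepatic side-effect score drawn from the training data of the DILIps (drug-induced liver injury prediction system); call rule not given here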; for HepSE liver disease: call rule not given here;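 for HepSE liver fatty: hepatic side effect score for fatty liver, taken from the DILIps training set for predicting drug-induced liver injury; call rule not given here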;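 for HepSE liver function tests abnormal: hepatic side effect score taken from the DILIps (drug-induced liver injury prediction system) training data, here covering abnormal liver function test findings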
[3] = tested on: Hepatotoxicity; remark: listed apart in the source;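 for HepSE bilirubinemia: bilirubinemia hepatic side effect score drawn from the DILIps training data, a prediction system for drug-induced liver injury; call rule not given here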;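 for HepSE cholecystitis: Cholecystitis-related hepatic side effect score drawn from the DILIps (drug-induced liver injury prediction) training data set; call rule not given here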;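 for HepSE jaundice: Jaundice-related hepatic side-effect score drawn from the training data of the DILIps (drug-induced liver injury prediction system); call rule not given here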; for HepSE liver disease: call rule not given here;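 for HepSE liver fatty: hepatic side effect score for fatty liver, taken from the DILIps training set for predicting drug-induced liver injury; call rule not given here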;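 for HepSE liver function tests abnormal: hepatic side effect score taken from the DILIps (drug-induced liver injury prediction system) training data, here covering abnormal liver function test findings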
[4] = tested on: Hepatotoxicity; remark: listed apart in the source;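 for HepSE bilirubinemia: bilirubinemia hepatic side effect score drawn from the DILIps training data, a prediction system for drug-induced liver injury; call rule not given here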;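 for HepSE cholecystitis: Cholecystitis-related hepatic side effect score drawn from the DILIps (drug-induced liver injury prediction) training data set; call rule not given here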;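 for HepSE jaundice: Jaundice-related hepatic side-effect score drawn from the training data of the DILIps (drug-induced liver injury prediction system); call rule not given here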; for HepSE liver disease: call rule not given here;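 for HepSE liver fatty: hepatic side effect score for fatty liver, taken from the DILIps training set for predicting drug-induced liver injury; call rule not given here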;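 for HepSE liver function tests abnormal: hepatic side effect score taken from the DILIps (drug-induced liver injury prediction system) training data, here covering abnormal liver function test findings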
[5] = tested on: Hepatotoxicity; remark: listed apart in the source; for HepSE liver disease: call rule not given here
[6] = tested on: Hepatotoxicity; remark: listed apart in the source; for HepSE liver disease: call rule not given here
[7] = tested on: Hepatotoxicity; remark: listed apart in the source
[8] = tested on: Hepatotoxicity; remark: listed apart in the source
[9] = tested on: Hepatotoxicity; remark: listed apart in the source
[10] = tested on: Hepatotoxicity; remark: listed apart in the source
[11] = tested on: Hepatotoxicity; remark: listed apart in the source
[12] = tested on: Hepatotoxicity; remark: listed apart in the source
[13] = tested on: Hepatotoxicity; remark: listed apart in the source
[14] = tested on: Hepatotoxicity; remark: listed apart in the source

SMILES | HepSE_liver function tests abnormal [1] | HepSE_liver fatty [2] | HepSE_cholecystitis [3] | HepSE_bilirubinemia [4] | HepSE_jaundice [5] | HepSE_liver disease [6] | HepSE_cholelithiasis [7] | HepSE_hepatomegaly [8] | HepSE_hepatic necrosis [9] | HepSE_cirrhosis [10] | HepSE_Combined Scores [11] | HepSE_elevated liver function tests [12] | HepSE_hepatic failure [13] | HepSE_hepatitis [14] | further results
C[C@]12CC[C@@H]3c4ccc(O)cc4CC[C@H]3[C@@H]1CC[C@@H]2O [ESTRADIOL] | 0 | 0 | 0 | 0 | 1 | 0 | 0 | 0 | 0 | 0 | 3 | 1 | 0 | 1 | –
O=C1Nc2ccc(Cl)cc2C(c2ccccc2Cl)=NC1O (configuration not stated) [LORAZEPAM] | 1 | 0 | 0 | 0 | 1 | 0 | 0 | 0 | 0 | 0 | 2 | 0 | 0 | 0 | –
Cc1cccc(Nc2ccccc2C(=O)O)c1C [MEFENAMIC ACID] | – | – | – | – | – | – | – | – | – | – | – | – | – | – | HepSE_liver function tests abnormal ([1]; Liver): 0; HepSE_liver fatty ([2]; Liver): 0; HepSE_cholecystitis ([3]; Liver): 0; HepSE_bilirubinemia ([4]; Liver): 0; HepSE_jaundice ([5]; Liver): 1; HepSE_liver disease ([6]; Liver): 0; HepSE_cholelithiasis ([7]; Liver): 0; HepSE_hepatomegaly ([8]; Liver): 0; HepSE_hepatic necrosis ([9]; Liver): 0; HepSE_cirrhosis ([10]; Liver): 0; HepSE_Combined Scores ([11]; Liver): 3; HepSE_elevated liver function tests ([12]; Liver): 0; HepSE_hepatic failure ([13]; Liver): 1; HepSE_hepatitis ([14]; Liver): 1
CCCc1nc(C)c2c(=O)[nH]c(-c3cc(S(=O)(=O)N4CCN(CC)CC4)ccc3OCC)nn12 | 1 | 0 | 0 | 0 | 0 | 0 | 0 | 0 | 0 | 0 | 1 | 0 | 0 | 0 | –
FC(F)(F)C(Cl)Br (configuration not stated) [HALOTHANE] | 0 | 0 | 0 | 0 | 0 | 0 | 0 | 0 | 1 | 0 | 1 | 0 | 0 | 0 | –
COc1ccc(C(=O)Nc2ccccc2CCC2CCCCN2C)cc1 (configuration not stated) [ENCAINIDE] | 0 | 0 | 0 | 0 | 1 | 0 | 0 | 0 | 0 | 0 | 2 | 0 | 0 | 1 | –
Cc1c(O)cccc1C(=O)N[C@@H](CSc1ccccc1)[C@H](O)CN1C[C@H]2CCCC[C@H]2C[C@H]1C(=O)NC(C)(C)C | 1 | 0 | 0 | 1 | 1 | 0 | 0 | 0 | 0 | 0 | 4 | 0 | 0 | 1 | –
C#C[C@]1(O)CC[C@H]2[C@@H]3CCC4=Cc5oncc5C[C@]4(C)[C@H]3CC[C@@]21C [DANAZOL] | 0 | 0 | 0 | 0 | 1 | 0 | 0 | 0 | 0 | 0 | 1 | 0 | 0 | 0 | –
Cc1onc(-c2c(Cl)cccc2Cl)c1C(=O)N[C@@H]1C(=O)N2[C@@H]1SC(C)(C)[C@@H]2C(=O)O [DICLOXACILLIN] | 1 | 0 | 0 | 0 | 0 | 0 | 0 | 0 | 0 | 0 | 2 | 0 | 0 | 1 | –
CC(C)N1CCN(c2ccc(OCC3COC(Cn4cncn4)(c4ccc(Cl)cc4Cl)O3)cc2)CC1 (configuration not stated) [TERCONAZOLE] | 0 | 0 | 0 | 0 | 0 | 0 | 0 | 0 | 0 | 0 | 0 | 0 | 0 | 0 | –
OC(Cn1cncn1)(Cn1cncn1)c1ccc(F)cc1F [FLUCONAZOLE] | – | – | – | – | – | – | – | – | – | – | – | – | – | – | HepSE_liver function tests abnormal ([1]; Liver): 0; HepSE_liver fatty ([2]; Liver): 0; HepSE_cholecystitis ([3]; Liver): 0; HepSE_bilirubinemia ([4]; Liver): 0; HepSE_jaundice ([5]; Liver): 1; HepSE_liver disease ([6]; Liver): 0; HepSE_cholelithiasis ([7]; Liver): 0; HepSE_hepatomegaly ([8]; Liver): 0; HepSE_hepatic necrosis ([9]; Liver): 1; HepSE_cirrhosis ([10]; Liver): 0; HepSE_Combined Scores ([11]; Liver): 4; HepSE_elevated liver function tests ([12]; Liver): 0; HepSE_hepatic failure ([13]; Liver): 1; HepSE_hepatitis ([14]; Liver): 1
CN1CCC[C@@H]1Cc1c[nH]c2ccc(CCS(=O)(=O)c3ccccc3)cc12 | 1 | 0 | 0 | 1 | 0 | 0 | 0 | 0 | 0 | 0 | 2 | 0 | 0 | 0 | –
Cc1cn[nH]c1 [FOMEPIZOLE] | 0 | 0 | 0 | 0 | 0 | 0 | 0 | 0 | 0 | 0 | 0 | 0 | 0 | 0 | –
Cc1ccccc1C(OCCN(C)C)c1ccccc1 (configuration not stated) [ORPHENADRINE] | – | 0 | 0 | 0 | 0 | 0 | 0 | 0 | 0 | 0 | 0 | – | 0 | 0 | HepSE_liver function tests abnormal ([1]; Liver): 0; HepSE_elevated liver function tests ([12]; Liver): 0
NNCCc1ccccc1 [PHENELZINE] | – | – | – | – | – | – | – | – | – | – | – | – | – | – | HepSE_liver function tests abnormal ([1]; Liver): 0; HepSE_liver fatty ([2]; Liver): 0; HepSE_cholecystitis ([3]; Liver): 0; HepSE_bilirubinemia ([4]; Liver): 0; HepSE_jaundice ([5]; Liver): 1; HepSE_liver disease ([6]; Liver): 0; HepSE_cholelithiasis ([7]; Liver): 0; HepSE_hepatomegaly ([8]; Liver): 0; HepSE_hepatic necrosis ([9]; Liver): 0; HepSE_cirrhosis ([10]; Liver): 0; HepSE_Combined Scores ([11]; Liver): 1; HepSE_elevated liver function tests ([12]; Liver): 0; HepSE_hepatic failure ([13]; Liver): 0; HepSE_hepatitis ([14]; Liver): 0
CCc1c(C)[nH]c2c1C(=O)C(CN1CCOCC1)CC2 (configuration not stated) [MOLINDONE] | 0 | 0 | 0 | 0 | 0 | 0 | 0 | 0 | 0 | 0 | 0 | 0 | 0 | 0 | –
NC1=NCC2c3ccccc3Cc3ccccc3N12 (configuration not stated) [EPINASTINE] | – | – | – | – | – | – | – | – | – | – | – | – | – | – | HepSE_liver function tests abnormal ([1]; Liver): 0; HepSE_liver fatty ([2]; Liver): 0; HepSE_cholecystitis ([3]; Liver): 0; HepSE_bilirubinemia ([4]; Liver): 0; HepSE_jaundice ([5]; Liver): 0; HepSE_liver disease ([6]; Liver): 0; HepSE_cholelithiasis ([7]; Liver): 0; HepSE_hepatomegaly ([8]; Liver): 0; HepSE_hepatic necrosis ([9]; Liver): 0; HepSE_cirrhosis ([10]; Liver): 0; HepSE_Combined Scores ([11]; Liver): 0; HepSE_elevated liver function tests ([12]; Liver): 0; HepSE_hepatic failure ([13]; Liver): 0; HepSE_hepatitis ([14]; Liver): 0
CC[C@@H]1/C=C(\C)C[C@H](C)C[C@H](OC)[C@H]2O[C@@](O)(C(=O)C(=O)N3CCCC[C@H]3C(=O)O[C@H](/C(C)=C/[C@@H]3CC[C@H](Cl)[C@H](OC)C3)[C@H](C)[C@@H](O)CC1=O)[C@H](C)C[C@@H]2OC [PIMECROLIMUS] | 0 | 0 | 0 | 0 | 0 | 0 | 0 | 0 | 0 | 0 | 0 | 0 | 0 | 0 | –
